Laboratory results as given in ChEMBL document CHEMBL1128076, “Synthesis of novel 20-oxo-pregnacalciferol analogs with binding affinity to the progesterone receptor” (1995).

Tested on: T47D
Experiment: Inhibition of breast cancer cell line T47D proliferation
Type: functional, Homo sapiens
Design: concentration or dose not given beside the values

Row | Compound | Inhibition
1 | C[C@H](CO)C1CCC2/C(=C/C=C3CCCCC3)CCC[C@@]21C (stereo partly drawn) | 13%
2 | C[C@H](CO)C1CCC2/C(=C/C=C3CCC4(CC3)OCCO4)CCC[C@@]21C (stereo partly drawn) | 40%
3 | CC(=O)C1CCC2/C(=C/C=C3CCCCC3)CCC[C@]12C (stereo partly drawn) | 24%
4 | C[C@H](C=O)C1CCC2/C(=C/C=C3CCC4(CC3)OCCO4)CCC[C@@]21C (stereo partly drawn) | 47%
5 | C=C1CC[C@H](O)C/C1=C/C=C1\CCC[C@]2(C)C(C(C)=O)CCC12 (stereo partly drawn) | 59%
6 | C[C@H](C=O)C1CCC2/C(=C/C=C3CCCCC3)CCC[C@@]21C (stereo partly drawn) | 36%
7 | CC(=O)C1CCC2/C(=C/C=C3CCC4(CC3)OCCO4)CCC[C@]12C (stereo partly drawn) | 47%
8 | CC(=O)C1CCC2/C(=C/C=C3CCC(=O)CC3)CCC[C@]12C (stereo partly drawn) | 58%
